Laboratory results reported in EPA's ToxValDB 9.5 (doi:10.2903/j.efsa.2010.1779).
Converted amounts (≈) assume the structure as drawn.

How the values were obtained:
[1] = system: Anas platyrhynchos
[2] = system: Apis mellifera; settings: acute; duration: 48 hours; oral; unspecified; mortality
[3] = system: Bibionidae; settings: chronic/long-term
[4] = system: Colinus virginianus
[5] = system: Daphnia magna
[6] = system: Mus musculus; settings: chronic; duration: 18 months; histopathology: neoplastic
[7] = system: Neomysis kadiakensis; settings: acute; duration: 96 hours; mortality
[8] = system: Oncorhynchus mykiss
[9] = system: Oryctolagus sp.; settings: developmental; development
[10] = system: Rattus norvegicus
[11] = system: Tagia sp.; settings: acute; duration: 14 days; mortality
[12] = system: Adalia sp.; experiment: LR50; higher = less toxic; settings: not reported; mortality
[13] = system: Typhlodromus pyri; experiment: LR50; higher = less toxic; settings: acute; duration: 14 days; mortality

## CCOC(=O)NCCOc1ccc(Oc2ccccc2)cc1 [Fenoxycarb]
[1]; acute, oral, unspecified, mortality
  LD50: > 3000 mg/kg-day
[1]; reproductive
  NOEC: 17.7 mg/kg-day
[1]; short-term, oral, feed, mortality
  LC50: > 5880 mg/kg-day
[2]
  LD50: > 204 µg/piece
[3]
  NOEC: 0.0028 mg/kg
[3]; duration: 28 days
  NOEC: 0.00075 mg/L
[4]; acute, oral, diet, mortality
  LC50: 1360 mg/kg-day
[4]; acute, oral, mortality
  LD50: > 7000 mg/kg-day
[4]; reproduction developmental
  NOEC: 35.9 mg/kg-day
[5]; acute, duration: 48 hours, mortality
  LC50: 0.5 µg/mL (≈ 1.66 µM)
[5]; chronic/long-term, duration: 21 days, reproduction
  NOEC: 1.6e-06 mg/L
[6]
  LOAEL: 5.3 mg/kg-day
[7]
  LC50: 0.35 µg/mL (≈ 1.16 µM)
[8]; acute, duration: 96 hours, mortality
  LC50: 0.66 µg/mL (≈ 2.19 µM)
[8]; chronic/long-term, duration: 60 days, body weight
  NOEC: 0.048 mg/L
[9]
  NOAEL: 200 mg/kg-day
[10]; acute, oral, mortality
  LD50: > 10000 mg/kg-day
[10]; chronic
  NOAEC: 40 mg/kg-day
[10]; subchronic, duration: 13 weeks, oral, organ weight
  NOAEL: 9.7 mg/kg-day
[11]
  LC50: > 850 mg/kg
[12]
  LR50: > 2.5 g/ha
[13]
  LR50: > 463 g/ha
